Test results from patent US11331289B2, “Antimicrobial composition” (priority 2017, dated 2022).
In brackets after ≈: the same amount, converted by molar mass.

System: Malassezia pachydermatis
Assay: MIC, microdilution broth method
Format: cell-based
Description: Six clinical isolates from dog skin (n=5) and cats (n=1) which had been sent to EnvA (mycology laboratory of BioPôle Alfort) for mycological culture. The isolates, collected in March 2016, were identified as belonging to the species Malassezia pachydermatis. They were maintained by regular transplanting on medium of Sabouraud. Isolates are subcultured 2 to 3 days prior to testing sensitivity.
A stock solution of Oxyclozanide at 1600 μg/mL is prepared in DMSO. The stock solution is then diluted in DMSO to obtain a concentration range of 3.125 μg/ml to 800 μg/ml. A 1/50 dilution of this range and of the stock solution is then carried out in ultrapure water so as to obtain a concentration range of 0.0625 μg/ml to 32 μg/ml and containing 2% of DMSO. 50 μl of these solutions are deposited in wells of a microplate and then 50 μl of inoculum calibrated at 10^6 CFU/ml in Sabouraud/Tween 40 (2%) are added. A range of tested concentrations ranges from 0.0312 μg/mL to 16 μg/mL. The final concentration of DMSO in contact with the inoculum is 1%. The same dilution and seeding protocol was followed with a stock solution of amphotericin B at 1600 μg/ml. A “placebo” (or yeast growth control) column is systematically included in the plates. The plates are incubated at 37 ° C. The reading is done at 24 and 48 h. Several trials were conducted and protocol adjustments were required. In particular, the concentration of the inoculum had to be reduced for antifungal activity to be observed.

MIC (Isolate 1, Assay 1, 10^6 CFU/ml): 2 µg/mL (≈ 2.16 µM)
MIC (Isolate 1, Assay 2, 10^6 CFU/ml): 4 µg/mL (≈ 4.33 µM)
MIC (Isolate 2, Assay 1, 10^6 CFU/ml): 2 µg/mL (≈ 2.16 µM)
MIC (Isolate 2, Assay 2, 10^6 CFU/ml): 2 µg/mL (≈ 2.16 µM)
MIC (Isolate 3, Assay 1, 10^6 CFU/ml): 4 µg/mL (≈ 4.33 µM)
MIC (Isolate 3, Assay 2, 10^6 CFU/ml): 8 µg/mL (≈ 8.66 µM)
MIC (Isolate 4, Assay 1, 10^6 CFU/ml): 4 µg/mL (≈ 4.33 µM)
MIC (Isolate 4, Assay 2, 10^6 CFU/ml): 4 µg/mL (≈ 4.33 µM)
MIC (Isolate 5, Assay 1, 10^6 CFU/ml): 4 µg/mL (≈ 4.33 µM)
MIC (Isolate 5, Assay 2, 10^6 CFU/ml): 4 µg/mL (≈ 4.33 µM)
MIC (Isolate 6, Assay 1, 10^6 CFU/ml): 4 µg/mL (≈ 4.33 µM)
MIC (Isolate 6, Assay 2, 10^6 CFU/ml): 8 µg/mL (≈ 8.66 µM)
SMILES: C[C@@H]1[C@H](O)[C@@H](C)/C=C/C=C/C=C/C=C/C=C/C=C/C=C/[C@H](O[C@@H]2O[C@H](C)[C@@H](O)[C@H](N)[C@@H]2O)C[C@@H]2O[C@](O)(C[C@@H](O)C[C@@H](O)[C@H](O)CC[C@@H](O)C[C@@H](O)CC(=O)O[C@H]1C)C[C@H](O)[C@H]2C(=O)O [Amphoterine B, amphotericin B]
